What was measured:
[1] = Acute adverse effects, 66-item List of Complaints; details: for headache, number of subjects reporting: 0-12 hours, high dose; for headache, number of subjects reporting / balance disturbed, number of subjects / dry mouth, number of subjects reporting: 28 subjects
[2] = Autonomic effects (blood pressure, heart rate, body temperature, pupil) in healthy subjects; details: for rate pressure product: high dose of both substances
[3] = Spontaneously reported adverse events after treatment; assay type: in vivo, human; details: for type and amount of adverse events, psilocybin versus LSD: in vivo; for flash back episodes: within 72 hours after administration, nine episodes in five subjects
Experimental: (§1) The subjects then underwent baseline measurements.
In addition to the adverse effects systematically assessed with the list of complaints, there were spontaneously reported adverse events after LSD or psilocybin administration as assessed in the evening of the treatment day or within 48 hours after treatment. These adverse after effects after psilocybin or LSD administration included headaches (four subjects after psilocybin and three after LSD), migraine attack (one subject after LSD), nosebleeds (one subject after psilocybin), low mood (two subjects after psilocybin and two subjects after LSD), nausea (two subjects after psilocybin and one subject after LSD), nightmares (one subject after psilocybin), restlessness (one subject after psilocybin and one subject after LSD), vivid dreams (one subject after LSD), insomnia (one subject after psilocybin), involuntary movement in lower extremities (one subject after LSD). Nine flash back episodes occurred in five subjects (one to 20 times within 72 hours after substance administration), five episodes occurred after LSD administration, four episodes occurred after psilocybin administration.

5-HT transporter (SERT) = 5-HT transporter (SERT) (Homo sapiens, UniProt P31645); details: cited from earlier work
Chain of 5-HT transporter (SERT) (P31645 whole entry, species assumed): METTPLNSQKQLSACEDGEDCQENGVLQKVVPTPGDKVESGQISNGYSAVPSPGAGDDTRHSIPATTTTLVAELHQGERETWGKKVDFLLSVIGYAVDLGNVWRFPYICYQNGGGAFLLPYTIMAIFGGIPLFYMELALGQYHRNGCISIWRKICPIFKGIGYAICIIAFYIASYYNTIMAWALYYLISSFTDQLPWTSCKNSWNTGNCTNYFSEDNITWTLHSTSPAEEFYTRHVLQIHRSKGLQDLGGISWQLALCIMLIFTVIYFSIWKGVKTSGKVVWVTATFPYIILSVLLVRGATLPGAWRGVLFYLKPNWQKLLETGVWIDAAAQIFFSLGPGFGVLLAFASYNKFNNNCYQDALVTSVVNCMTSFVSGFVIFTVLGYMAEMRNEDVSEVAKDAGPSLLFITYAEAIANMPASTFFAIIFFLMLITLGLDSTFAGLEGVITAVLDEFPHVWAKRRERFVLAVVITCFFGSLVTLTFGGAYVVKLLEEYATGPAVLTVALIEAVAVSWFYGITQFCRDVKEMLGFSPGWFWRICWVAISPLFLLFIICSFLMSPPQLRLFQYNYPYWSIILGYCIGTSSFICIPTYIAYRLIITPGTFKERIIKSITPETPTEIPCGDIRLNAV

[4] = Adjective Mood Rating Scale (AMRS) in healthy subjects
[5] = Endocrine effects: plasma cortisol and prolactin (PRL); assay type: in vivo, human; details: 2.5 hours after administration
Experimental: as §1
Endocrine effects: Plasma concentrations of cortisol, prolactin (PRL), oxytocin, and brain-derived neurotrophic factor (BDNF) were determined as described elsewhere (Holze et al., 2021; Schmid et al., 2015). Cortisol and PRL were measured before and 2.5 hours after drug administration. BDNF was measured before and three times after drug administration.
The criterion for significance was p<0.05.

[6] = target: serotonin (5-HT)2A receptors (Homo sapiens, UniProt P28223); details: cited from earlier work
Chain of serotonin (5-HT)2A receptors (P28223 whole entry): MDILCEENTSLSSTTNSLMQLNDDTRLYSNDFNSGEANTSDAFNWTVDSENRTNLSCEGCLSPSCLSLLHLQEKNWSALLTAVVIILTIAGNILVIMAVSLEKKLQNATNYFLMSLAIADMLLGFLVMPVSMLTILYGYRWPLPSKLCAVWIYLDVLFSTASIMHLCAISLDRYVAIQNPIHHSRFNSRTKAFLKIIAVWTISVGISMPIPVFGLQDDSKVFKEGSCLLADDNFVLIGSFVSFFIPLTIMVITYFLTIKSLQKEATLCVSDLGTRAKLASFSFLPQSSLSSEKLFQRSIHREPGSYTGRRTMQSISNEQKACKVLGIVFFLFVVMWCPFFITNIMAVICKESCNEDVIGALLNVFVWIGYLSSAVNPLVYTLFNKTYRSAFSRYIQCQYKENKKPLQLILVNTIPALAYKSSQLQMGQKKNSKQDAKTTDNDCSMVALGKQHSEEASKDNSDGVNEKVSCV

[7] = Dose equivalence of LSD and psilocybin extrapolated from acute effects; assay type: in vivo, human; details: LSD 200 μg
[8] = four unused old LSD capsules, years after study completion; cited from earlier work
D1-3 receptors = details: cited from earlier work
[9] = Mystical Experience Questionnaire (MEQ43 and MEQ30) in healthy subjects; details: LSD 200 μg; MEQ43 p=0.002, MEQ30 p=0.015
[10] = 75 μg LSD base in saline i.v., previous studies; cited from earlier work
[11] = Subjective drug effects on visual analog scales (VAS) in healthy subjects
[12] = 5 Dimensions of Altered States of Consciousness Scale (5D-ASC) in healthy subjects
[13] = after the 200 μg dose as two 100 μg LSD capsules (Steuer et al., 2017); cited from earlier work
[14] = Plasma exposure of LSD and iso-LSD after LSD capsules in previous studies; details: similar bioavailability assumed
[15] = evening of treatment day or within 48 hours

CN(C)CCc1c[nH]c2cccc(OP(=O)(O)O)c12 [psilocybin]
headache, number of subjects reporting [1]: 18 subjects | balance disturbed, number of subjects [1]: 16 subjects | dry mouth, number of subjects reporting [1]: 9 subjects | frequency of acute adverse effects, LSD versus psilocybin ([1]; in vivo): equally frequent | most frequent acute adverse effects ([1]; in vivo): fatigue, headache, lack of concentration, lack of energy, dullness, feeling week, loss of appetite, dry mouth, and impaired balance | acute adverse effects versus LSD 100 μg ([1]; psilocybin 15 mg, p<0.01): fewer | acute adverse effects versus psilocybin 30 mg ([1]; psilocybin 15 mg, p<0.1): trend toward fewer | rate pressure product [2]: similarly increased | increase in diastolic blood pressure versus LSD 200 μg ([2]; psilocybin 30 mg, p<0.001): more | increase in systolic blood pressure versus LSD 200 μg ([2]; psilocybin 30 mg, p=0.04): more | headaches, spontaneously reported [3, 15]: four | insomnia, spontaneously reported [3, 15]: one | low mood, spontaneously reported [3, 15]: two | nausea, spontaneously reported [3, 15]: two | nightmares, spontaneously reported [3, 15]: one | nosebleeds, spontaneously reported [3, 15]: one | restlessness, spontaneously reported [3, 15]: one | type and amount of adverse events, psilocybin versus LSD [3]: comparable | flash back episodes [3]: four

CN(C)CCc1c[nH]c2cccc(O)c12 [Psilocin, psilocin]
action on the 5-HT transporter (SERT) (5-HT transporter (SERT)): inhibits

CCN(CC)C(=O)[C@@H]1C=C2c3cccc4[nH]cc(c34)C[C@H]2N(C)C1 [LSD, lysergic acid diethylamide]
AMRS emotional excitation versus 15 mg or 30 mg psilocybin ([4]; LSD 100 and 200 μg): greater | AMRS extraversion ratings versus placebo ([4]; all doses): decrease | AMRS inactivation ratings versus placebo ([4]; all doses): significantly and similarly increased | AMRS introversion ratings versus placebo ([4]; all doses): increased | AMRS self-rated anxiety ([4]; both doses of LSD (100 and 200 μg)): slightly but significantly increased | PRL plasma concentrations [5]: significantly increased | cortisol plasma concentrations [5]: significantly increased | binding to 5-HT2A receptors [6]: bind | overall strength versus the 30 mg psilocybin dose [7]: overall stronger | remaining amount of LSD in capsules [8]: 22 ± 7 µg | action on D1-3 receptors (D1-3 receptors): stimulates | headache, number of subjects reporting [1]: 13 subjects | balance disturbed, number of subjects [1]: 16 subjects | dry mouth, number of subjects reporting [1]: 15 subjects | frequency of acute adverse effects, LSD versus psilocybin ([1]; in vivo): equally frequent | most frequent acute adverse effects ([1]; in vivo): fatigue, headache, lack of concentration, lack of energy, dullness, feeling week, loss of appetite, dry mouth, and impaired balance | total number of acute complaints, 100 versus 200 μg LSD ([1]; in vivo): did not differ | increase in heart rate versus psilocybin 30 mg ([2]; LSD 200 μg, p=0.002): significantly more | rate pressure product [2]: similarly increased | MEQ ineffability ratings versus 30 mg psilocybin [9]: significantly greater | clinical response to 75 μg intravenous LSD versus oral 100 μg dose [10]: not significantly different | dose-response curve of subjective effects ([11]; 15-30 mg psilocybin range compared to 100-200 μg LSD range): plateau effect | overall effects and positive drug effects, 200 μg versus 100 μg LSD ([11]; LSD 100 and 200 μg oral): comparable positive drug effects | bad drug effects, 200 μg versus 100 μg LSD ([11]; human, in vivo): more | ego dissolution (VAS), 200 μg versus 100 μg LSD ([11]; p=0.014): more and greater | anxiety (VAS), 200 μg versus 100 μg LSD ([11]; p=0.054): more and near-significantly greater | alterations of the mind in the 5D-ASC scale ([12]; human, in vivo): marked alterations of the mind | 5D-ASC AED (anxious ego dissolution), 200 μg versus 100 μg LSD ([12]; p=0.02): greater | 5D-ASC anxiety, 200 μg versus 100 μg LSD ([12]; p=0.03): greater | 5D-ASC impairments of control and cognition, 200 μg versus 100 μg LSD ([12]; p=0.04): greater | plasma AUC24 [13]: 21 ng·h/mL | headaches, spontaneously reported [3, 15]: three | involuntary movement in lower extremities, spontaneously reported [3, 15]: one | low mood, spontaneously reported [3, 15]: two | migraine attack, spontaneously reported [3, 15]: one | nausea, spontaneously reported [3, 15]: one | restlessness, spontaneously reported [3, 15]: one | vivid dreams, spontaneously reported [3, 15]: one | type and amount of adverse events, psilocybin versus LSD [3]: comparable | flash back episodes [3]: five | AUC∞ as percent of the value expected from confirmed 96 μg LSD doses ([14]; 100 μg dose): 61% | AUC∞ as percent of the value expected from confirmed 96 μg LSD doses ([14]; 200 μg dose): 76%

CCN(CC)C(=O)[C@H]1C=C2c3cccc4[nH]cc(c34)C[C@H]2N(C)C1 [iso-LSD]
plasma AUC24 [13]: 9.2 ng·h/mL

From patent publication US20230039395A1, “LSD AND […] EQUIVALENCE DETERMINATION” (Universitätsspital Basel, priority 2021, published 2023)
